# Data: US4835172A, “Novel benzamides, intermediates and process for the preparation and therapeutic use thereof” (Societe D'Etudes Scientifiques et Industrielles de …, priority 1985, dated 1989)
# Where two headings read alike, the source gives them in different places.
# Columns and labels:
# solubility in water = format: physicochemical
# prolactin = prolactin content in serum after subcutaneous administration in the male rat; format: in vivo
# Procedure: The blood samples had been taken 10 and 30 minutes after administration of the compound, whereas the same dose of a reference antidopaminergic (Sulpiride) studied under the same conditions, multiplies the amount of basic prolactinaemia by a factor of about 10.
# D2 receptors = target: T1, D2 receptors (Rattus norvegicus, UniProt P61169); experiment: displacement of 3H-spiperone, ligand of D2 receptors, in vitro on rat striatum preparations; format: binding; conditions: read-out: inhibiting concentration (50), I.C. 50, relative to 3H-spiperone
# T1 construct: in vitro tests on rat striatum preparations; from tissue; host or cells: rat striatum preparations
# T1 sequence (P61169 whole entry): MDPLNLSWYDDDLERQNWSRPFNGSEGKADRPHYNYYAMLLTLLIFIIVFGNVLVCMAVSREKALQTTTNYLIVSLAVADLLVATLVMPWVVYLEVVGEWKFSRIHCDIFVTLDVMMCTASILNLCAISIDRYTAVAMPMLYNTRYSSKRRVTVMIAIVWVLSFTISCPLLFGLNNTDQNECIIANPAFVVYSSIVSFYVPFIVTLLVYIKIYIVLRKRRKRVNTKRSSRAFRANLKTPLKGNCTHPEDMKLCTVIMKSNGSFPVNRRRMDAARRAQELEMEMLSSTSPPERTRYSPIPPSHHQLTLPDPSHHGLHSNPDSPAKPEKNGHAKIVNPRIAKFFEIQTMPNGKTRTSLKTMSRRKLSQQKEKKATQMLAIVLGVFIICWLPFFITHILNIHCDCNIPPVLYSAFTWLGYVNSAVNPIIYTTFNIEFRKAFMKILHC
# Excerpt: (§1) These tests which consisted of studying the displacement of specific ligands of dopamine receptors by compounds of the invention. The compound in Example I was found, for instance, to have an inhibiting concentration (50), I.C.
# D1 receptors = experiment: displacement of 3H-piflutixol, ligand of D1 receptors, in vitro on rat striatum preparations; format: binding
# Excerpt: as §1
# [1] = test system: reserpine-induced motor depression and ptosis; experiment: reserpine model of behavioural depression; format: in vivo, mice or rats
# Procedure: In view of this activating property of the compounds of the invention, animal models of behavioural depression were used to investigate a possible antidepressive effect. For example, mice pre-treated with reserpine (5 mg/kg) intraperitoneally 18 hours before the test, or rats receiving reserpine in the nucleus accumbens 1 μg/24 h) were tested.
# acute toxicity in mice = conditions: mouse, in vivo
# Procedure: In the course of this pharmacological research a toxicological study of the most preferred compound was carried out.
compound,measurement,setting,value
"C=CCOc1cc(NC2=NCCN2)c(Cl)cc1C(=O)NCCN(CC)CC [XXXIII, N-(DIETHYLAMINO ETHYL) 2-ALLYLOXY 4-[(1-H 4,5 DIHYDRO 2-IMIDAZOLYL) AMINO] 5-CHLORO BENZAMIDE]",solubility,"solubility in water; hydrochloride prepared for immediate use, read-out: soluble in water, hydrochloride",200 mg/mL
same,solubility,"solubility in water; the product (base), read-out: insoluble in water",10 mg/mL
"CCN1CCCC1CNC(=O)c1cc(S(N)(=O)=O)ccc1OC (stereo not shown) [Sulpiride, reference compound]",factor by which the amount of basic prolactinaemia is multiplied,prolactin; same dose (1 mg/kg) and same conditions,about 10
"COc1cc(NC2=NCCO2)c(Cl)cc1C(=O)NCC1CCCN1CC1CC1 (stereo not shown) [XL, N-(1-CYCLOPROPYLMETHYL 2-PYRROLIDINYLMETHYL) 2-METHOXY 4-[(4,5-DIHYDRO 2-OXAZOLYL) AMINO] 5-CHLORO BENZAMIDE]",solubility,"solubility in water; monohydrochloride prepared for immediate use, read-out: soluble in water, monohydrochloride",~320 mg/mL
"CCN(CC)CCNC(=O)c1cc(Cl)c(NC2=NCCN2)cc1OC [Example I, N-[(DIETHYL AMINO) ETHYL] 2-METHOXY 4-[(1-H 4,5-DIHYDRO 2-IMIDAZOLYL) AMINO] 5-CHLORO BENZAMIDE]",IC50,D2 receptors,> 100 µM
same,displacement of 3H-piflutixol,D1 receptors,no displacement
same,increase in prolactin content in serum,"prolactin; 1 mg/kg s.c., eight rats, 10 and 30 minutes after administration",no increase in prolactin content
same,activity compared with imipramine against reserpine,[1]; 0.1 mg/kg s.c. versus imipramine 30 mg/kg i.p.,as active at that dose as 30 mg/kg of imipramine
same,effect on reserpine-induced motor depression and ptosis,"[1]; 0.1 mg/kg s.c., reserpine 5 mg/kg i.p. (mice) or in nucleus accumbens 1 μg/24 h (rats)",counteracts motor depression and ptosis
same,LD50,"acute toxicity in mice; ip, read-out: LD 50 i.p.",37.7 to 40.8 mg/kg
same,LD50,"acute toxicity in mice; iv, read-out: LD 50 i.v.",12.8 to 14.4 mg/kg
same,LD50,"acute toxicity in mice; po, per os, read-out: LD 50 per os",165 to 180 mg/kg
same,LD50,"acute toxicity in mice; sc, read-out: LD 50 s.c.",52 to 54 mg/kg
